Source: patent US8753691B2, “Antiviral colloidal silver composition” (priority 1999, dated 2014)
≈ marks a conversion by molar mass, not a printed value. Where “and” joins values, the source holds several entries; their conditions need not be identical. Identical values can stand only once. Like-named read-outs stand apart in the source and are kept apart here.

Experiments:
S arizona = assay: MIC/MBC broth microdilution; assay type: cell-based; settings: for MIC: read-out: MIC (minimum inhibitory concentration); for MBC: read-out: MBC (minimum bactericidal concentration)
E. aerogenes = assay: MIC/MBC broth microdilution; assay type: cell-based
S. typhimurium = assay: MIC/MBC broth microdilution; assay type: cell-based; settings: for MBC: read-out: MBC (minimum bactericidal concentration)
S gordonii = assay: MIC/MBC broth microdilution; assay type: cell-based; settings: for MIC: read-out: MIC (minimum inhibitory concentration)
S. boydii = assay: MIC/MBC broth microdilution; assay type: cell-based; settings: for MBC: read-out: MBC (minimum bactericidal concentration)
S. aureus = assay: MIC/MBC broth microdilution; assay type: cell-based
E. coli = assay: MIC/MBC broth microdilution; assay type: cell-based
S. pneumoniae = assay: MIC/MBC broth microdilution; assay type: cell-based
S. faecalis = assay: MIC/MBC broth microdilution; assay type: cell-based
K. oxytoca = assay: MIC/MBC broth microdilution; assay type: cell-based
S. mutans = assay: MIC/MBC broth microdilution; assay type: cell-based
S. pyogenes = assay: MIC/MBC broth microdilution; assay type: cell-based
K. pneumoniae = assay: MIC/MBC broth microdilution; assay type: cell-based
P. aeruginosa = assay: MIC/MBC broth microdilution; assay type: cell-based
[1] = target: Moloney murine leukemia virus reverse transcriptase (MoMuLV) (Moloney murine leukemia virus, UniProt P03355); assay: Test of reverse transcriptase inhibition; settings: 3 μl inhibitor; 37° C. 2 hours; AZT at 0.625 microgram/ml
[2] = test system: Staphylococcus aureus ATCC #6538
Method: (§1) At 30 second intervals, 0.5 ml of each challenge culture was added to the appropriate dilutions of phenol, agitated, and replaced into the water bath: After the appropriate exposure times of 5, 10, and 15 minutes, a loopful of suspension was removed from the assay tubes and transferred to tubes of letheen broth (LETH).

[3] = test system: Pseudomonas aeruginosa ATCC #15442
Method: as §1

[4] = test system: Salmonella choleraesuis ATCC #10708; settings: 5, 10 or 15 min
Method: as §1

E. cloacae = assay: MIC/MBC broth microdilution; assay type: cell-based

CC1COc2c(N3CCN(C)CC3)c(F)cc3c(=O)c(C(=O)O)cn1c23 (stereo not shown) [Ofloxacin]
MIC (S arizona): 0.078 µg/mL (≈ 0.216 µM)
MBC (E. aerogenes; Klebsiella aerogenes, read-out: MBC (minimum bactericidal concentration)): 0.156 µg/mL (≈ 0.432 µM)
MIC (E. aerogenes; Klebsiella aerogenes, read-out: MIC (minimum inhibitory concentration)): 0.078 µg/mL (≈ 0.216 µM)
MBC (S. typhimurium; Salmonella enterica): 0.156 µg/mL (≈ 0.432 µM)
MIC (S. typhimurium; Salmonella enterica, read-out: MIC (minimum inhibitory concentration)): 0.078 µg/mL (≈ 0.216 µM)
MBC (S gordonii; read-out: MBC (minimum bactericidal concentration)): 5 µg/mL (≈ 13.8 µM)
MIC (S gordonii): 2.5 µg/mL (≈ 6.92 µM)
MBC (S. boydii; S. boydii): 0.156 µg/mL (≈ 0.432 µM)

CCN1CCN(C(=O)N[C@@H](C(=O)N[C@@H]2C(=O)N3C(C(=O)O)=C(CSc4nnnn4C)CS[C@H]23)c2ccc(O)cc2)C(=O)C1=O [Cefaperazone]
MBC (minimum bactericidal concentration) (S arizona): > 5.0 ppm
MIC (minimum inhibitory concentration) (S arizona): 0.833 ppm
MBC (minimum bactericidal concentration) (E. aerogenes): > 5.0 ppm
MIC (minimum inhibitory concentration) (E. aerogenes): 2.92 ppm
MBC (minimum bactericidal concentration) (S. aureus): 5.0/5.0 ppm
MIC (minimum inhibitory concentration) (S. aureus): 5.0/5.0 ppm
MBC (minimum bactericidal concentration) (S. typhimurium): 2.5 ppm
MIC (minimum inhibitory concentration) (S. typhimurium): 1.25 ppm
MBC (minimum bactericidal concentration) (S gordonii): 1.25/1.25 ppm
MIC (minimum inhibitory concentration) (S gordonii): 1.25/1.25 ppm
MBC (minimum bactericidal concentration) (E. coli): > 5.0 ppm
MIC (minimum inhibitory concentration) (E. coli): 0.625 ppm
MBC (minimum bactericidal concentration) (S. pneumoniae): 0.313/0.313 ppm
MIC (minimum inhibitory concentration) (S. pneumoniae): 0.313/0.313 ppm
MBC (minimum bactericidal concentration) (S. boydii; S. boydii): 0.625/0.625 ppm
MIC (minimum inhibitory concentration) (S. boydii; S. boydii): 0.625/0.625 ppm
MIC (minimum inhibitory concentration) (S. faecalis): >5.0 ppm
MBC (minimum bactericidal concentration) (K. oxytoca): > 5.0 ppm
MIC (minimum inhibitory concentration) (K. oxytoca): 1.25 ppm
MBC (minimum bactericidal concentration) (S. mutans): > 5 ppm
MIC (minimum inhibitory concentration) (S. mutans): 1.25 ppm
MBC (minimum bactericidal concentration) (S. pyogenes): 1.25 ppm
MIC (minimum inhibitory concentration) (S. pyogenes): 0.313 ppm
MIC (minimum inhibitory concentration) (K. pneumoniae): >5.0 ppm
MBC (minimum bactericidal concentration) (P. aeruginosa): 5.0 ppm
MIC (minimum inhibitory concentration) (P. aeruginosa): 2.5 ppm

CC[C@H]1OC(=O)[C@H](C)[C@@H](O[C@H]2C[C@@](C)(OC)[C@@H](O)[C@H](C)O2)[C@H](C)[C@@H](O[C@@H]2O[C@H](C)C[C@H](N(C)C)[C@H]2O)[C@](C)(O)C[C@@H](C)C(=O)[C@H](C)[C@@H](O)[C@]1(C)O [Erythromycin]
MBC (S arizona): > 5 µg/mL
MIC (S gordonii): 0.005 µg/mL (≈ 0.00681 µM)
MBC (S. boydii; S. boydii): > 5 µg/mL
MIC (S. boydii; S. boydii, read-out: MIC (minimum inhibitory concentration)): 5 µg/mL (≈ 6.81 µM)

Cc1cn([C@H]2C[C@H](N=[N+]=[N-])[C@@H](CO)O2)c(=O)[nH]c1=O [AZT, zidovudine (AZT)]
% Inhibition (reverse transcriptase) [1]: 31.33% and 18.06%

Oc1ccccc1 [phenol]
growth after phenol treatment ([2]; 1:60 phenol, 5 or 10 min): showed growth
growth after phenol treatment ([2]; 1:60 phenol, 15 min): no growth
growth after phenol treatment ([2]; 1:70 phenol, 5, 10 or 15 min): showed growth
growth after phenol treatment ([3]; 1:80 phenol, 5 or 10 min): showed growth
growth after phenol treatment ([3]; 1:80 phenol, 15 min): no growth
growth after phenol treatment ([3]; 1:90 phenol, 5, 10 or 15 min): showed growth
growth after phenol treatment ([4]; 1:90 phenol): no growth
growth after phenol treatment ([4]; 1:100 phenol): showed growth

CN(C)[C@@H]1C(O)=C(C(N)=O)C(=O)[C@@]2(O)C(O)=C3C(=O)c4c(O)cccc4[C@@](C)(O)[C@H]3C[C@@H]12 [Tetracycline]
MBC (S arizona): > 5 µg/mL
MIC (S arizona): 0.625 µg/mL (≈ 1.41 µM)
MBC (S. typhimurium; Salmonella enterica): > 5 µg/mL
MBC (S. boydii; S. boydii): > 5 µg/mL
MBC (K. oxytoca; Klebsiella oxytoca, read-out: MBC (minimum bactericidal concentration)): > 5 µg/mL

CC1(C)S[C@@H]2[C@H](NC(=O)Cc3ccccc3)C(=O)N2[C@H]1C(=O)O [Penicillin G]
MIC (minimum inhibitory concentration) (S arizona): >5.0 ppm
MIC (minimum inhibitory concentration) (E. aerogenes): >5.0 ppm
MBC (minimum bactericidal concentration) (S. aureus): > 5.0 ppm
MIC (minimum inhibitory concentration) (S. aureus): 2.5 ppm
MIC (minimum inhibitory concentration) (S. typhimurium): >5.0 ppm
MBC (minimum bactericidal concentration) (S gordonii): 0.039 ppm
MIC (minimum inhibitory concentration) (S gordonii): 0.009 ppm
MIC (minimum inhibitory concentration) (E. coli): >5.0 ppm
MBC (minimum bactericidal concentration) (S. pneumoniae): 0.019/0.019 ppm
MIC (minimum inhibitory concentration) (S. pneumoniae): 0.019/0.019 ppm
MIC (minimum inhibitory concentration) (S. boydii): >5.0 ppm
MBC (minimum bactericidal concentration) (S. faecalis): 5.0/>5.0 ppm
MIC (minimum inhibitory concentration) (S. faecalis): 5.0/>5.0 ppm
MIC (minimum inhibitory concentration) (K. oxytoca): >5.0 ppm
MBC (minimum bactericidal concentration) (S. mutans): > 5 ppm
MIC (minimum inhibitory concentration) (S. mutans): 0.521 ppm
MIC (minimum inhibitory concentration) (S. pyogenes): >5.0 ppm
MIC (minimum inhibitory concentration) (K. pneumoniae): >5.0 ppm
MBC (minimum bactericidal concentration) (P. aeruginosa): > 5.0 ppm
MIC (minimum inhibitory concentration) (P. aeruginosa): 0.13 ppm
MIC (minimum inhibitory concentration) (E. cloacae): >5.0 ppm
